Assays:
Type in all cases: physicochemical
[1] = lambda max (Vis) of activated photochromic test squares in a Varian Cary 3 uv-visible spectrophotometer; details: activated form in test square
Protocol: (§1) Testing was done with the photochromic compounds described in Examples 1 through 20 and Comparative Examples 1 through 3 in the following manner. A quantity of photochromic compound calculated to yield a 1.5×10^-3 molal solution was added to a flask containing 50 grams of a monomer blend of 4 parts ethoxylated bisphenol A dimethacrylate (BPA 2EO DMA), 1 part poly(ethylene glycol) 600 dimethacrylate, and 0.033 weight percent 2,2'-azobis(2-methyl propionitrile) (AIBN). The photochromic compound was dissolved into the monomer blend by stirring and gentle heating, if necessary. After a clear solution was obtained, it was poured into a flat sheet mold having the interior dimensions of 2.2 mm×6 inches (15.24 cm)×6 inches (15.24 cm). The mold was sealed and placed in a horizontal air flow, programmable oven programmed to increase the temperature from 40° C. to 95° C. over a 5 hour interval, hold the temperature at 95° C. for 3 hours, lower it to 60° C. over a 2 hour interval and then hold it at 60° C. for 16 hours. After the mold was opened, the polymer sheet was cut using a diamond blade saw into 2 inch (5.1 centimeters) test squares.
The lambda max (Vis) is the wavelength in the visible spectrum at which the maximum absorption of the activated (colored) form of the photochromic compound in a test square occurs. The lambda max (Vis) wavelengths reported in Table 1 were determined by testing the photochromic test square polymerizates of Part A in a Varian Cary 3 uv-visible spectrophotometer. The bleach rate (T 1/2) is the time interval in seconds for the absorbance of the activated form of the photochromic compound in the test squares to read one half the highest absorbance at room temperature (72° F., 22.2° C.) after removal of the source of activating light.
For each lambda max visible, the corresponding optical density (Δ OD/Min and Δ OD at saturation) for the desired compounds of the Examples and Comparative Examples are tabulated in Table 1 for the two bands (A and B) of peak absorption for each compound. Table 1 also includes the bleach rate (T 1/2) for each of the compounds as measured at band B. The ratings of the Relative Δ OD at Saturation Test for the bands A and B of each of the Examples and Comparative Examples are calculated as follows: Δ OD at saturation (Band A)/Δ OD at saturation (Band B)×100.

[2] = photochromic response of test squares on an optical bench (sensitivity, saturation optical density, bleach rate); details: for ΔOD @ Saturation (Band A) / ΔOD @ Saturation (Band B): UV exposure 15 minutes; for ΔOD @ Saturation (Band A) / Sensitivity ΔOD/MIN (Band A) / ΔOD @ Saturation (Band B) / Sensitivity ΔOD/MIN (Band B): 72° F. (22.2° C.), polymer test square; for Sensitivity ΔOD/MIN (Band A) / Sensitivity ΔOD/MIN (Band B): first five (5) seconds of UV exposure, expressed per minute; for Bleach Rate T 1/2: measured at band B, room temperature (72° F., 22.2° C.) after removal of activating light
Protocol: as §1
(§2) The photochromic test squares of Part A were tested for photochromic response rates on an optical bench. Prior to testing on the optical bench, the photochromic test squares were exposed to 365 nanometer ultraviolet light for about 15 minutes to activate the photochromic compounds and then placed into a 76° C. oven for about 15 minutes to bleach the photochromic compounds. The test squares were then cooled to room temperature, exposed to fluorescent room lighting for at least 2 hours and then kept covered for at least 2 hours prior to testing on an optical bench maintained at 72° F. (22.2° C.). The bench was fitted with a 250 watt Xenon arc lamp, a remote controlled shutter, a copper sulfate bath acting as a heat sink for the arc lamp, a Schott WG-320 nm cut-off filter which removes short wavelength radiation; neutral density filter(s) and a sample holder in which the square to be tested was inserted. The power output of the optical bench, i.e., the dosage of light that the sample lens would be exposed to, was calibrated with a photochromic test square used as a reference standard. […] The UV-A detector was placed into the sample holder and the light output was measured. Adjustments to the power output were made by increasing or decreasing the lamp wattage or by adding or removing neutral density filters in the light path.
A monitoring, collimated beam of light from a tungsten lamp was passed through the square at a small angle (approximately 30°) normal to the square. After passing through the square, the light from the tungsten lamp was directed to a detector through Spectral Energy Corp. GM-200 monochromator set at the previously determined visible lambda max of the photochromic compound being measured. The output signals from the detector were processed by a radiometer.
(§3) Change in optical density (ΔOD) was determined by inserting a test square in the bleached state into the sample holder, adjusting the transmittance scale to 100%, opening the shutter from the Xenon lamp to provide ultraviolet radiation to change the test square from the bleached state to an activated (i.e., darkened) state, measuring the transmittance in the activated state, and calculating the change in optical density according to the formula: ΔOD=log(100/% Ta), where % Ta is the percent transmittance in the activated state and the logarithm is to the base 10.
The ΔOD/Min, which represents the sensitivity of the photochromic compound's response to UV light, was measured over the first five (5) seconds of UV exposure, then expressed on a per minute basis. The saturation optical density (ΔOD@ Saturation) was taken under identical conditions as the ΔOD/Min, except UV exposure was continued for 15 minutes. […]

[3] = Relative ΔOD at Saturation Test; details: ΔOD at saturation (Band A)/ΔOD at saturation (Band B)×100
Excerpt: In accordance with the present invention, it has now been discovered that certain novel indeno[2,1-f]naphtho[1,2-b]pyrans having two absorption bands in the activated (colored) state, an acceptable fade rate, high activated intensity, a high coloration rate and a rating of 80 or higher in the Relative ΔOD at Saturation Test may be prepared. The Relative ΔOD at Saturation Test is described in Example 21. The ratings of the test are defined herein as the result obtained when the optical density of band "A" is divided by the optical density of band "B" and multiplied by 100. It is believed that compounds having a rating of 80 or higher are most valuable for formulating neutral grays, greens and browns for commercial photochromic ophthalmic eyeware.
as §1, §2
as §3, with “10. […]” for “10.”

Compound | λ MAX Vis (Band A) [1] [nm] | λ MAX Vis (Band B) [1] [nm] | ΔOD @ Saturation (Band A) [2] | Sensitivity ΔOD/MIN (Band A) [2] | ΔOD @ Saturation (Band B) [2] | Sensitivity ΔOD/MIN (Band B) [2] | Bleach Rate T 1/2 [2] [min] | Relative ΔOD at Saturation (rating) [3]
COc1ccc(C2(c3ccc(N4CCOCC4)cc3)C=Cc3c4c(c5cc(OC)c(OC)cc5c3O2)-c2ccccc2C4c2ccccc2)cc1 (stereo not drawn) [Example 8, 3-(4-methoxyphenyl)-3-(4-morpholinophenyl)-6,7-dimethoxy-13-phenyl-3H, 13H-indeno[2,1-f]naphtho[1,2-b]pyran] | 484 | 603 | 0.43 | 0.14 ΔOD/MIN | 0.44 | 0.18 ΔOD/MIN | 2.98 | 98
COc1ccc(C2(c3ccc(N4CCOCC4)cc3)C=Cc3c4c(c5cc(OC)c(OC)cc5c3O2)-c2ccccc2C4(C)C)cc1 (stereo not drawn) [Example 9, 3-(4-methoxyphenyl)-3-(4-morpholinophenyl)-6,7-dimethoxy-13,13-dimethyl-3H,13H-indeno[2,1-f]naphtho[1,2-b]pyran] | 477 | 597 | 0.60 | 0.18 ΔOD/MIN | 0.59 | 0.23 ΔOD/MIN | 3.4 | 102
COc1ccc(C2(c3ccc(N(C)C)cc3)C=Cc3c4c(c5cc(OC)c(OC)cc5c3O2)-c2ccccc2C4(C)C)cc1 (stereo not drawn) [Example 10, 3-(4-methoxyphenyl)-3-(4-dimethylaminophenyl)-6,7-dimethoxy-13,13-dimethyl-3H,13H-indeno[2,1-f]naphtho[1,2-b]pyran] | 500 | 615 | 0.41 | 0.20 ΔOD/MIN | 0.50 | 0.28 ΔOD/MIN | 2.17 | 82
COc1ccc(C2(c3ccc(OC)cc3)C=Cc3c4c(c5c(OC)c(OC)c(OC)cc5c3O2)-c2ccccc2C4c2ccccc2)cc1 (stereo not drawn) [Example 11, 3,3-di(4-methoxyphenyl)-6,7,8-trimethoxy-13-phenyl-3H,13H-indeno[2,1-f]naphtho[1,2-b]pyran] | 482 | 581 | 0.66 | 0.28 ΔOD/MIN | 0.62 | 0.25 ΔOD/MIN | 3.05 | 106
CCC1(O)c2cc(OC)c(OC)cc2-c2c1c1c(c3cc(OC)c(OC)cc23)OC(c2ccc(OC)cc2)(c2ccc(N3CCOCC3)cc2)C=C1 (stereo not drawn) [Example 12, 3-(4-methoxyphenyl)-3-(4-morpholinophenyl)-6,7,10,11-tetramethoxy-13-hydroxy-13-ethyl-3H,13H-indeno[2,1-f]naphtho[1,2-b]pyran] | 480 | 632 | 0.46 | 0.26 ΔOD/MIN | 0.43 | 0.27 ΔOD/MIN | 2.17 | 106
CCCCC1(O)c2cc(OC)c(OC)cc2-c2c1c1c(c3cc(OC)c(OC)cc23)OC(c2ccc(OC)cc2)(c2ccc(N3CCOCC3)cc2)C=C1 (stereo not drawn) [Example 13, 3-(4-methoxyphenyl)-3-(4-morpholinophenyl)-6,7,10,11-tetramethoxy-13-hydroxy-13-butyl-3H,13H-indeno[2,1-f]naphtho[1,2-b]pyran] | 482 | 634 | 0.39 | 0.27 ΔOD/MIN | 0.37 | 0.25 ΔOD/MIN | 1.42 | 105
CCC1(O)c2ccccc2-c2c1c1c(c3cc(OC)c(OC)cc23)OC(c2ccccc2)(c2ccc(N3CCOCC3)cc2)C=C1 (stereo not drawn) [Example 14, 3-(4-morpholinophenyl)-3-phenyl-6,7-dimethoxy-13-hydroxy-13-ethyl-3H,13H-indeno[2,1,-f]naphtho[1,2-b]pyran] | 485 | 600 | 0.41 | 0.24 ΔOD/MIN | 0.40 | 0.22 ΔOD/MIN | 1.8 | 103
CCCCC1(O)c2ccccc2-c2c1c1c(c3cc(OC)c(OC)cc23)OC(c2ccc(OC)cc2)(c2ccc(OC)cc2)C=C1 (stereo not drawn) [Example 15, 3,3-di(4-methoxyphenyl)-6,7-dimethoxy-13-hydroxy-13-butyl-3H,13H-indeno[2,1,-f]naphtho[1,2-b]pyran] | 457 | 579 | 0.37 | 0.29 ΔOD/MIN | 0.22 | 0.18 ΔOD/MIN | 1.27 | 168
CCCCC1(O)c2ccccc2-c2c1c1c(c3cc(OC)c(OC)cc23)OC(c2ccccc2)(c2ccc(N3CCOCC3)cc2)C=C1 (stereo not drawn) [Example 16, 3-(4-morpholinophenyl)-3-phenyl-6,7-dimethoxy-13-hydroxy-13-butyl-3H,13H-indeno[2,1,-f]naphtho[1,2-b]pyran] | 485 | 600 | 0.37 | 0.22 ΔOD/MIN | 0.35 | 0.19 ΔOD/MIN | 1.88 | 106
